Measurements taken from PubChem BioAssay AID248 (DTP/NCI, 2004).
Where “and” joins values, the source holds several entries; their conditions need not be identical. Equal entries are not always repeated. Inconclusive results and toxic doses are left out. Rule as the data show it: active = T/C of 150% or more; inactive = T/C below 125%.

Tested on: L1210 leukemia ip in BDF1 mice, survival T/C
Assay: NCI In Vivo Anticancer Drug Screen. Data for tumor model L1210 Leukemia (intraperitoneal) in B6D2F1 (BDF1) mice
Details: endpoint: mean survival time, higher = longer survival
Method in brief: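 Tumor cells were implanted, animals were treated, and survival was followed. The result divides the treated measurement by the vehicle-control measurement.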

[1] = dose: 25.0 mg/kg/injection, schedule: Q01DX009 (ip), vehicle: Klucel (hydroxypropylcellulose) (HPC)
[2] = dose: 50.0 mg/kg/injection, schedule: Q01DX009 (ip), vehicle: Klucel (hydroxypropylcellulose) (HPC)
[3] = dose: 100.0 mg/kg/injection, schedule: Q01DX009 (ip), vehicle: Klucel (hydroxypropylcellulose) (HPC)
[4] = dose: 100.0 mg/kg/injection, schedule: Q04DX003 (ip), vehicle: saline
[5] = dose: 200.0 mg/kg/injection, schedule: Q04DX003 (ip), vehicle: saline
[6] = dose: 100.0 mg/kg/injection, schedule: Q01DX001 (ip), vehicle: saline
[7] = dose: 200.0 mg/kg/injection, schedule: Q01DX001 (ip), vehicle: saline
[8] = dose: 400.0 mg/kg/injection, schedule: Q01DX001 (ip), vehicle: saline
[9] = dose: 100.0 mg/kg/injection, schedule: Q01DX001 (ip), vehicle: carboxymethylcellulose (CMC)
[10] = dose: 200.0 mg/kg/injection, schedule: Q01DX001 (ip), vehicle: carboxymethylcellulose (CMC)
[11] = dose: 400.0 mg/kg/injection, schedule: Q01DX001 (ip), vehicle: carboxymethylcellulose (CMC)
[12] = dose: 100.0 mg/kg/injection, schedule: Q04DX003 (ip), vehicle: saline with Tween-80
[13] = dose: 200.0 mg/kg/injection, schedule: Q04DX003 (ip), vehicle: saline with Tween-80
[14] = dose: 400.0 mg/kg/injection, schedule: Q04DX003 (ip), vehicle: saline with Tween-80
[15] = dose: 100.0 mg/kg/injection, schedule: Q01DX009 (ip), vehicle: saline with Tween-80
[16] = dose: 200.0 mg/kg/injection, schedule: Q01DX009 (ip), vehicle: saline with Tween-80
[17] = dose: 400.0 mg/kg/injection, schedule: Q01DX009 (ip), vehicle: saline with Tween-80
[18] = dose: 100.0 mg/kg/injection, schedule: Q01DX001 (ip), vehicle: Klucel (hydroxypropylcellulose) (HPC)
[19] = dose: 100.0 mg/kg/injection, schedule: Q04DX003 (ip), vehicle: Klucel (hydroxypropylcellulose) (HPC)
[20] = dose: 200.0 mg/kg/injection, schedule: Q01DX009 (ip), vehicle: Klucel (hydroxypropylcellulose) (HPC)
[21] = dose: 200.0 mg/kg/injection, schedule: Q04DX003 (ip), vehicle: Klucel (hydroxypropylcellulose) (HPC)
[22] = dose: 400.0 mg/kg/injection, schedule: Q01DX009 (ip), vehicle: Klucel (hydroxypropylcellulose) (HPC)
[23] = dose: 400.0 mg/kg/injection, schedule: Q04DX003 (ip), vehicle: Klucel (hydroxypropylcellulose) (HPC)
[24] = dose: 100.0 mg/kg/injection, schedule: Q01DX009 (ip), vehicle: saline
[25] = dose: 200.0 mg/kg/injection, schedule: Q01DX009 (ip), vehicle: saline
[26] = dose: 400.0 mg/kg/injection, schedule: Q01DX009 (ip), vehicle: saline

Measured: T/C

CCSc1ccc2c(cc1=O)C(NC(=O)NC)CCc1cc(OC)c(OC)c(OC)c1-2 (stereo unspecified)
inactive: [1] 116 % of control | [2] 112 % of control | [3] 92 % of control

OCCCOc1cccc(Cl)c1
inactive: dose: 75.0 mg/kg/injection, schedule: Q04DX002 (ip), vehicle: Klucel (hydroxypropylcellulose) (HPC) 105 % of control | dose: 150.0 mg/kg/injection, schedule: Q04DX002 (ip), vehicle: Klucel (hydroxypropylcellulose) (HPC) 108 % of control | dose: 300.0 mg/kg/injection, schedule: Q04DX002 (ip), vehicle: Klucel (hydroxypropylcellulose) (HPC) 105 % of control

COc1ccc(N2C(=O)C3C4c5ccccc5C(C3C2=O)[n+]2ccccc24)cc1 (stereo unspecified)
inactive: [4] 97 % of control | [5] 103 % of control

O=[N+]([O-])c1ccc(O)cc1/C=N/Nc1nnc(N/N=C/c2cc(O)ccc2[N+](=O)[O-])c2ccccc12
inactive: dose: 50.0 mg/kg/injection, schedule: Q01DX001 (ip), vehicle: saline 98 % of control | [6] 98 % of control | [7] 98 % of control | [8] 102 % of control

CCOC(=O)C(C)N(c1ccccc1)S(=O)(=O)c1ccc(C)cc1 (stereo unspecified)
inactive: [9] 103 % of control | [10] 110 % of control | [11] 113 % of control

COC(=O)C1C2C=CC(C2)C1C(=O)OC (stereo unspecified)
inactive: [12] 99 % of control | [13] 105 % of control | [14] 92 % of control

O=C(NC1N=C2OC(COC(=O)c3ccccc3)C(OC(=O)c3ccccc3)C2O1)c1ccccc1 (stereo unspecified)
inactive: [15] 108 % of control | [16] 93 % of control | [17] 98 % of control

Cc1c(C#N)c2n(c1C)CCN2
inactive: [1] 105 % of control | [2] 97 % of control | [18] 91 % of control | [3] 94 % of control

CC(C)(CC(=O)c1ccccc1)CC(=O)c1ccccc1
inactive: [6] 109 % of control | [7] 116 % of control | [8] 98 % of control

O=S(=O)(NC1CCC(CC2CCCCC2)CC1)c1ccccc1 (stereo unspecified)
inactive: [3] 101 % of control | [19] 96 % of control | [20] 104 % of control | [21] 97 % of control | [22] 106 % of control | [23] 94 % of control

CC1(C)C(C)(C)C1(F)Cl
inactive: [9] 101 % of control | [10] 106 % of control | [11] 118 % of control

CCOc1ccc(NP(=O)(Oc2c(F)c(F)c(F)c(F)c2F)N(CCCl)CCCl)cc1 (stereo unspecified)
inactive: dose: 62.5 mg/kg/injection, schedule: Q01DX001 (ip), vehicle: other 95 % of control | dose: 125.0 mg/kg/injection, schedule: Q01DX001 (ip), vehicle: other 90 % of control | dose: 250.0 mg/kg/injection, schedule: Q01DX001 (ip), vehicle: other 89 % of control | dose: 500.0 mg/kg/injection, schedule: Q01DX001 (ip), vehicle: other 87 % of control

Cc1ccc(C(=O)C(C)(C)C)c(C)c1
inactive: [24] 97 % of control | [25] 97 % of control | [26] 93 % of control

O=C(Nc1ccccc1)Oc1ccc(OCc2ccccc2)cc1
inactive: dose: 12.5 mg/kg/injection, schedule: Q04DX003 (ip), vehicle: saline with Tween-80 95 % of control | dose: 25.0 mg/kg/injection, schedule: Q04DX003 (ip), vehicle: saline with Tween-80 93 % of control | dose: 50.0 mg/kg/injection, schedule: Q04DX003 (ip), vehicle: saline with Tween-80 93 % of control

CCNC(=O)N1CCN(c2ccc(Cl)cc2)CC1
inactive: dose: 40.0 mg/kg/injection, schedule: Q04DX003 (ip), vehicle: saline 101 % of control | dose: 75.0 mg/kg/injection, schedule: Q01DX001 (ip), vehicle: saline 97 % of control | dose: 75.0 mg/kg/injection, schedule: Q04DX003 (ip), vehicle: saline 98 % of control | dose: 150.0 mg/kg/injection, schedule: Q01DX001 (ip), vehicle: saline 101 % of control | dose: 150.0 mg/kg/injection, schedule: Q04DX003 (ip), vehicle: saline 95 % of control

O=C(Oc1ccc([N+](=O)[O-])cc1)c1ccccc1S(=O)OCCc1ccccc1 (stereo unspecified)
inactive: dose: 100.0 mg/kg/injection, schedule: Q01DX001 (ip), vehicle: other 92 % of control | dose: 200.0 mg/kg/injection, schedule: Q01DX001 (ip), vehicle: other 95 % of control

CN(C)c1ccc(C=C(C#N)C#N)cc1
inactive: [3] 100 % of control | [19] 96 % of control and 98 % of control | [20] 105 % of control | [21] 97 % of control and 102 % of control | [22] 94 % of control | [23] 93 % of control and 92 % of control

c1ccc2cc(-c3nc4cccc5c4n3CCC5)ccc2c1
inactive: [15] 97 % of control | [12] 92 % of control | [16] 95 % of control | [13] 89 % of control | [17] 98 % of control | [14] 94 % of control

O=C(Nc1ccc(C2=NCCN2)cc1)c1ccc(C(=O)Nc2ccc(C3=NCCN3)cc2)c(O)c1
inactive: dose: 15.0 mg/kg/injection, schedule: Q01DX Z (ip), vehicle: methylcellulose (MC) 96 % of control | dose: 30.0 mg/kg/injection, schedule: Q01DX Z (ip), vehicle: methylcellulose (MC) 98 % of control | dose: 60.0 mg/kg/injection, schedule: Q01DX Z (ip), vehicle: methylcellulose (MC) 93 % of control | dose: 120.0 mg/kg/injection, schedule: Q01DX Z (ip), vehicle: methylcellulose (MC) 93 % of control

O=C(O)c1cc2ccccc2c2cc(Br)ccc12
inactive: dose: 100.0 mg/kg/injection, schedule: Q01DX009 (ip), vehicle: saline sonified 100 % of control | [19] 91 % of control | dose: 200.0 mg/kg/injection, schedule: Q01DX009 (ip), vehicle: saline sonified 97 % of control | [21] 108 % of control | [23] 103 % of control

O=C1CC2(C(=O)N1c1ccccc1)C1C(=O)N(c3ccccc3)C(=O)C1C1C3C(=CCC4C(=O)N(c5ccccc5)C(=O)C43)C=CN12 (stereo unspecified)
inactive: dose: 100.0 mg/kg/injection, schedule: Q04DX002 (ip), vehicle: saline with Tween-80 105 % of control | dose: 200.0 mg/kg/injection, schedule: Q04DX002 (ip), vehicle: saline with Tween-80 98 % of control | dose: 400.0 mg/kg/injection, schedule: Q04DX002 (ip), vehicle: saline with Tween-80 102 % of control

CNC(=S)c1ccc(Cl)cc1
inactive: dose: 12.5 mg/kg/injection, schedule: Q01DX009 (ip), vehicle: Klucel (hydroxypropylcellulose) (HPC) 96 % of control | [1] 94 % of control

OC1CC2CCC(C1)S2 (stereo unspecified)
inactive: dose: 50.0 mg/kg/injection, schedule: Q01DX001 (ip), vehicle: Klucel (hydroxypropylcellulose) (HPC) 100 % of control | [18] 105 % of control | dose: 200.0 mg/kg/injection, schedule: Q01DX001 (ip), vehicle: Klucel (hydroxypropylcellulose) (HPC) 96 % of control

O=C(NCP(=O)(O)O)c1cccnc1
inactive: dose: 100.0 mg/kg/injection, schedule: Q04DX003 (ip), vehicle: saline sonified 94 % of control | dose: 200.0 mg/kg/injection, schedule: Q04DX003 (ip), vehicle: saline sonified 100 % of control | dose: 400.0 mg/kg/injection, schedule: Q04DX003 (ip), vehicle: saline sonified 102 % of control

C(Cc1ccccc1)=C1SCCCS1
inactive: [12] 99 % of control | [13] 96 % of control | [14] 96 % of control

CCOC(=O)C(C)NCc1ccccc1 (stereo unspecified)
inactive: [3] 94 % of control | [19] 98 % of control | [20] 111 % of control | [21] 93 % of control | [22] 103 % of control | [23] 96 % of control

NC(=O)NC(=O)c1ccccc1
inactive: [24] 96 % of control | [25] 101 % of control | [26] 106 % of control

CCOC(=O)C(N)=S
inactive: [4] 98 % of control | [5] 96 % of control | dose: 400.0 mg/kg/injection, schedule: Q04DX003 (ip), vehicle: saline 88 % of control
